Results on one substance are retold here after patent US20060275321A1, “Polypeptide antagonists of HIV-1 Tat protein” (Phoenix Pharmaceuticals, Inc., priority 2005, published 2006).

In this experiment the test system is dissociate cultured cortical neurons. The experiment in a line: Mobilization of intracellular Ca2+ in dissociate cultured cortical neurons (Fura-2 AM fluorescence). The settings on record: dissociate and cultured cortical neurons of newborn Sprague-Dawley rats, value ± spread. The experiment is classed as cell-based, rat. From the text:
Neurons can be isolated from cerebral cortex according to the protocols for postnatal dissociated nuerons as disclosed for example by Huettner, J. E. and Baughman, R. W., Primary Culture of Identified Neurons From the Visual Cortex of Postnatal Rats, Journal of Neurosciences 6; 3044-3060 (1986); Brewer, G. J., Isolation and Culture of Adult Rat Hippocampal Neurons, Journal of Neuroscience Methods, 71:143-155 (1997); and Brailoiu et al., NAADP Potentiates Neurite Outgrowth, Journal of Biological Chemistry (in press), each hereby incorporated by reference. Newborn Sprague-Dawley rates (about 1 day to about 4 days old) were killed by cervical dislocation. Cerebral cortex was removed and quickly immersed in ice-cold phosphate buffer solution. After removal of meninges, tissue was minced into about 1-millimeter blocks, incubated for about 45 minutes at 37° C. in Hanks balanced salt solution without Ca^2+ and Mg^2+ (Invitrogen, 1600 Faraday Avenue, Carlsbad, Calif. 92008) and supplemented with about 200 ug/mL penicillin, 0.1% EDTA and papain 0.15 mg/mL (Sigma-Aldrich, St. Louis, Mo.). In accordance with the procedure disclosed by Brewer, the tissue can be further dissociated by gentle mechanical trituration. […]

Bridges are numbered along the chain shown (N, C = ends). Where no end group is shown, it is not given here. The star is where a group is joined. Acm = CC(=O)NC*

With “30-86 Cys30Acm, Cys34Acm (Cys31-Cys37): HIV-1 Tat residues 30-86, Cys-Acm at 30 and 34, disulfide bridge Cys31-Cys37 (C(Acm)CFHC(Acm)QVCFITKALGISYGRKKRRQRRRAHQNSQTHQASLSKQPTSQPRGDPTGPKE; disulfide 2-8)”, the “[Ca^2+] response” value is “No Response”.
